Data reported in PMC7501296, “Rapid and direct control of target protein levels with VHL-recruiting dTAG molecules” (Nature Communications, 2020).
Read-outs that look alike come from different tables or passages of the source.

Tests used:
[1] = Pharmacokinetic evaluation in mice; format: in vivo, C57BL/6J male mice
Source text: For IP injections, dTAG-13 and dTAG^V-1 were formulated by dissolving into DMSO and then diluting with 20% solutol (Sigma): 0.9% sterile saline (Moltox) (w:v) with the final formulation containing 5% DMSO. […] Formulations were stable at room temperature for 7 days. For IV injections, dTAG-13 and dTAG^V-1 were formulated by dissolving into DMSO and then diluting with 5% solutol (Sigma): 0.9% sterile saline (Moltox) (w:v) with the final formulation containing 5% DMSO. All procedures for PK studies were compliant with ethical regulations for animal testing and research, and were approved by and performed in accordance with standards of the Institute Animal Care and Use Committee (IACUC) at Scripps Florida. Housing conditions for mice at Scripps Florida were as follows: lights on = 7 AM, lights off = 7 PM, average ambient temperature = 72 °F, and average humidity = 45%. PK was assessed in 8-week-old C57BL/6J male mice (Jackson Laboratory, #000664) with blood collected at 0.08, 0.25, 0.5, 1, 2, 4, 6, and 8 h (2 mg kg^−1 dTAG-13 intravenous (IV) tail vein, 10 mg kg^−1 dTAG-13 intraperitoneal (IP), and 2 mg kg^−1 dTAG^V-1 IV tail vein administrations) and 0.25, 0.5, 1, 2, 4, 6, 8, 24 and 48 h (2 mg kg^−1 dTAG^V-1 IP and 10 mg kg^−1 dTAG^V-1 IP administrations). Plasma was generated by centrifugation and plasma concentrations were determined by LC-MS/MS following the mass transition 49600à340 AMU. PK parameters were calculated using Phoenix WinNonlin to determine peak plasma concentration (Cmax), oral bioavailability (%F), exposure (AUC), half-life (t1/2), clearance (CL), and volume of distribution (Vd).

[2] = test system: EWS502 FKBP12^F36V-EWS/FLI; EWS/FLI^−/− cells; experiment: Synergy assessment: antiproliferation of EWS502 FKBP12F36V-EWS/FLI; EWS/FLI-/- cells co-treated with dTAGV-1 and dBET6, 72 h; format: cell-based
Protocol: Cell viability was assayed in 2D-adherent or ultra-low adherent 3D-spheroids using CellTiter-Glo (Promega)[6],[15]. Luminescence was measured on an Envision 2104 plate reader (PerkinElmer) and Fluostar Omega Reader (BMG Labtech) and data was analyzed using GraphPad PRISM v8. Synergy assessments were performed using CellTiter-Glo (Promega) with the following modifications to the protocol described in the ref. [34]. In brief, EWS502 cells were plated at 1000 cells per well in 50 µL of appropriate media in 384-well white culture plates (Corning) allowed to adhere overnight, and 100 nL of compounds were added using a Janus Workstation pin tool (PerkinElmer) for 72 h. Cell viability was measured by addition of 10 µL of CellTiter-glo (Promega), followed by incubation for 15 minutes at room temperature. Luminescence was measured on an Envision 2104 plate reader (PerkinElmer) and data was analyzed using GraphPad PRISM v8.

[3] = intraperitoneal administration at 10 mg kg^−1
[4] = male, C57BL/6J, mouse, plasma, IP, 2 mg kg-1
[5] = male, C57BL/6J, mouse, plasma, IP, 10 mg kg-1
[6] = male, C57BL/6J, mouse, plasma, IV, 2 mg kg-1

**Q.** Which CL ([1]; IP, 2 mg kg-1) does the source give for `CC[C@H](C(=O)N1CCCC[C@H]1C(=O)O[C@H](CCc1ccc(OC)c(OC)c1)c1ccccc1OCC(=O)NCCCCCCC(=O)N[C@H](C(=O)N1C[C@H](O)C[C@H]1C(=O)N[C@@H](C)c1ccc(-c2scnc2C)cc1)C(C)(C)C)c1cc(OC)c(OC)c(OC)c1` [dTAG^V-1] here?
**A.** 10.7 mL/min/kg

**Q.** And the CL ([1]; IP, 10 mg kg-1)?
**A.** 9.05 mL/min/kg

**Q.** And the “exposure (AUCinf)” value [1, 3]?
**A.** 18,517 h ng mL^−1

**Q.** What about the “half-life (T1/2)” value [1, 3] of the same molecule?
**A.** 4.43 h

**Q.** What about the AUC(0-inf) [1, 4] of the same molecule?
**A.** 3140 ng·h/mL

**Q.** What about the AUC(0-t) [1, 4] of the same molecule?
**A.** 2240 ng·h/mL

**Q.** And the half-life [1, 4]?
**A.** 3.64 h

**Q.** What about the Cmax ([1]; male, C57BL/6J, mouse, plasma, IP, 2 mg kg-1, read-out: Cmax) of the same molecule?
**A.** 595 ng/mL

**Q.** What about the Tmax ([1]; male, C57BL/6J, mouse, plasma, IP, 2 mg kg-1, read-out: Tmax) of the same molecule?
**A.** 1.67 h

**Q.** What about the AUC(0-inf) [1, 5] of the same molecule?
**A.** 18500 ng·h/mL

**Q.** And the AUC(0-t) [1, 5]?
**A.** 18100 ng·h/mL

**Q.** And the half-life [1, 5]?
**A.** 4.43 h

**Q.** And the Cmax ([1]; male, C57BL/6J, mouse, plasma, IP, 10 mg kg-1, read-out: Cmax)?
**A.** 2120 ng/mL

**Q.** What about the Tmax ([1]; male, C57BL/6J, mouse, plasma, IP, 10 mg kg-1, read-out: Tmax) of the same molecule?
**A.** 2 h

**Q.** What about the AUC(0-inf) [1, 6] of the same molecule?
**A.** 3330 ng·h/mL

**Q.** And the AUC(0-t) [1, 6]?
**A.** 3240 ng·h/mL

**Q.** What about the clearance [1, 6] of the same molecule?
**A.** 10.1 mL/min/kg

**Q.** What about the half-life [1, 6] of the same molecule?
**A.** 3.02 h

**Q.** What about the Cmax ([1]; male, C57BL/6J, mouse, plasma, IV, 2 mg kg-1, read-out: Cmax) of the same molecule?
**A.** 7780 ng/mL

**Q.** What about the Tmax ([1]; male, C57BL/6J, mouse, plasma, IV, 2 mg kg-1, read-out: Tmax) of the same molecule?
**A.** 0.08 h

**Q.** And the Vd ([1]; male, C57BL/6J, mouse, plasma, IV, 2 mg kg-1, read-out: Vss)?
**A.** 0.56 L/kg

**Q.** What about the “Average DMSO-normalized ratio used for CI calculation” value ([2]; 19.5 nM dTAGV-1 alone) of the same molecule?
**A.** 0.9622

**Q.** And the “Average DMSO-normalized ratio used for CI calculation” value ([2]; 78 nM dTAGV-1 alone)?
**A.** 1.188

**Q.** What about the “Average DMSO-normalized ratio used for CI calculation” value ([2]; 312.5 nM dTAGV-1 alone) of the same molecule?
**A.** 1.089

**Q.** And the “Average DMSO-normalized ratio used for CI calculation” value ([2]; 1250 nM dTAGV-1 alone)?
**A.** 1.112

**Q.** And the “Average DMSO-normalized ratio used for CI calculation” value ([2]; 5000 nM dTAGV-1 alone)?
**A.** 1.06

**Q.** And the “DMSO-normalized antiproliferation, Mean” value ([2]; co-treatment 19.5 nM dTAGV-1 (log10[M] -7.70927) + 1 nM dBET6 (log10[M] -9.0103))?
**A.** 98.11

**Q.** And the “DMSO-normalized antiproliferation, Mean” value ([2]; co-treatment 19.5 nM dTAGV-1 (log10[M] -7.70927) + 4 nM dBET6 (log10[M] -8.40824))?
**A.** 98.09

**Q.** And the “DMSO-normalized antiproliferation, Mean” value ([2]; co-treatment 19.5 nM dTAGV-1 (log10[M] -7.70927) + 15.6 nM dBET6 (log10[M] -7.80618))?
**A.** 79.8

**Q.** And the “DMSO-normalized antiproliferation, Mean” value ([2]; co-treatment 19.5 nM dTAGV-1 (log10[M] -7.70927) + 62.5 nM dBET6 (log10[M] -7.20412))?
**A.** 50.57

**Q.** What about the “DMSO-normalized antiproliferation, Mean” value ([2]; co-treatment 19.5 nM dTAGV-1 (log10[M] -7.70927) + 250 nM dBET6 (log10[M] -6.60206)) of the same molecule?
**A.** 35.76

**Q.** What about the “DMSO-normalized antiproliferation, Mean” value ([2]; co-treatment 78 nM dTAGV-1 (log10[M] -7.10721) + 1 nM dBET6 (log10[M] -9.0103)) of the same molecule?
**A.** 113.36

**Q.** And the “DMSO-normalized antiproliferation, Mean” value ([2]; co-treatment 78 nM dTAGV-1 (log10[M] -7.10721) + 4 nM dBET6 (log10[M] -8.40824))?
**A.** 105.67

**Q.** What about the “DMSO-normalized antiproliferation, Mean” value ([2]; co-treatment 78 nM dTAGV-1 (log10[M] -7.10721) + 15.6 nM dBET6 (log10[M] -7.80618)) of the same molecule?
**A.** 83.17

**Q.** What about the “DMSO-normalized antiproliferation, Mean” value ([2]; co-treatment 78 nM dTAGV-1 (log10[M] -7.10721) + 62.5 nM dBET6 (log10[M] -7.20412)) of the same molecule?
**A.** 54.14

**Q.** What about the “DMSO-normalized antiproliferation, Mean” value ([2]; co-treatment 78 nM dTAGV-1 (log10[M] -7.10721) + 250 nM dBET6 (log10[M] -6.60206)) of the same molecule?
**A.** 36.78

**Q.** And the “DMSO-normalized antiproliferation, Mean” value ([2]; co-treatment 312.5 nM dTAGV-1 (log10[M] -6.50515) + 1 nM dBET6 (log10[M] -9.0103))?
**A.** 111.14

**Q.** What about the “DMSO-normalized antiproliferation, Mean” value ([2]; co-treatment 312.5 nM dTAGV-1 (log10[M] -6.50515) + 4 nM dBET6 (log10[M] -8.40824)) of the same molecule?
**A.** 105.95

**Q.** What about the “DMSO-normalized antiproliferation, Mean” value ([2]; co-treatment 312.5 nM dTAGV-1 (log10[M] -6.50515) + 15.6 nM dBET6 (log10[M] -7.80618)) of the same molecule?
**A.** 72.28

**Q.** What about the “DMSO-normalized antiproliferation, Mean” value ([2]; co-treatment 312.5 nM dTAGV-1 (log10[M] -6.50515) + 62.5 nM dBET6 (log10[M] -7.20412)) of the same molecule?
**A.** 49.08

**Q.** And the “DMSO-normalized antiproliferation, Mean” value ([2]; co-treatment 312.5 nM dTAGV-1 (log10[M] -6.50515) + 250 nM dBET6 (log10[M] -6.60206))?
**A.** 33.26

**Q.** What about the “DMSO-normalized antiproliferation, Mean” value ([2]; co-treatment 1250 nM dTAGV-1 (log10[M] -5.90309) + 1 nM dBET6 (log10[M] -9.0103)) of the same molecule?
**A.** 89.48

**Q.** And the “DMSO-normalized antiproliferation, Mean” value ([2]; co-treatment 1250 nM dTAGV-1 (log10[M] -5.90309) + 4 nM dBET6 (log10[M] -8.40824))?
**A.** 74.91

**Q.** What about the “DMSO-normalized antiproliferation, Mean” value ([2]; co-treatment 1250 nM dTAGV-1 (log10[M] -5.90309) + 15.6 nM dBET6 (log10[M] -7.80618)) of the same molecule?
**A.** 44.25

**Q.** And the “DMSO-normalized antiproliferation, Mean” value ([2]; co-treatment 1250 nM dTAGV-1 (log10[M] -5.90309) + 62.5 nM dBET6 (log10[M] -7.20412))?
**A.** 31.06

**Q.** And the “DMSO-normalized antiproliferation, Mean” value ([2]; co-treatment 1250 nM dTAGV-1 (log10[M] -5.90309) + 250 nM dBET6 (log10[M] -6.60206))?
**A.** 29.68

**Q.** What about the “DMSO-normalized antiproliferation, Mean” value ([2]; co-treatment 5000 nM dTAGV-1 (log10[M] -5.30103) + 1 nM dBET6 (log10[M] -9.0103)) of the same molecule?
**A.** 80.15

**Q.** What about the “DMSO-normalized antiproliferation, Mean” value ([2]; co-treatment 5000 nM dTAGV-1 (log10[M] -5.30103) + 4 nM dBET6 (log10[M] -8.40824)) of the same molecule?
**A.** 47.93

**Q.** And the “DMSO-normalized antiproliferation, Mean” value ([2]; co-treatment 5000 nM dTAGV-1 (log10[M] -5.30103) + 15.6 nM dBET6 (log10[M] -7.80618))?
**A.** 27.9

**Q.** And the “DMSO-normalized antiproliferation, Mean” value ([2]; co-treatment 5000 nM dTAGV-1 (log10[M] -5.30103) + 62.5 nM dBET6 (log10[M] -7.20412))?
**A.** 26.15

**Q.** What about the “DMSO-normalized antiproliferation, Mean” value ([2]; co-treatment 5000 nM dTAGV-1 (log10[M] -5.30103) + 250 nM dBET6 (log10[M] -6.60206)) of the same molecule?
**A.** 25.03

**Q.** And the “DMSO-normalized antiproliferation, Mean” value ([2]; dTAGV-1 log10[M] -5.30103, with DMSO (no dBET6))?
**A.** 106.03

**Q.** What about the “DMSO-normalized antiproliferation, Mean” value ([2]; dTAGV-1 log10[M] -5.90309, with DMSO (no dBET6)) of the same molecule?
**A.** 111.22

**Q.** And the “DMSO-normalized antiproliferation, Mean” value ([2]; dTAGV-1 log10[M] -6.50515, with DMSO (no dBET6))?
**A.** 108.9

**Q.** What about the “DMSO-normalized antiproliferation, Mean” value ([2]; dTAGV-1 log10[M] -7.10721, with DMSO (no dBET6)) of the same molecule?
**A.** 118.75

**Q.** What about the “DMSO-normalized antiproliferation, Mean” value ([2]; dTAGV-1 log10[M] -7.70927, with DMSO (no dBET6)) of the same molecule?
**A.** 96.22
